Reference: patent publication US9464112B2, “Peptides having NF-κB inhibitory activity, or composition comprising same” (KNU-INDUSTRY COOPERATION FOUNDATION, priority 2012, dated 2016)

What was measured:
Type in all cases: cell-based
[1] = test system: TNF-α; assay: TNF-α expression in UVB-irradiated human keratinocytes HaCaT (Western blotting); conditions: UVB 312 nm 12.5 mJ/cm^2, 48 hours, peptide 0.1˜2 μM, dose-dependent
Experimental: (§1) We evaluated the inhibitory activities of the peptide of the present invention on expressions of the representative pro-inflammatory factors, i.e., TNF-α and IL-1α, the expressions of which are induced by ultraviolet stimulation. Specifically, the HaCaT cells (Molecular Biology Engineering Lab, Chemical & Biochemical Engineering, Dongguk University) were irradiated with UVB (312 nm, 12.5 mJ/cm^2) and then treated with the peptide of SEQ ID NO: 1 in the concentrations of 0.1˜2 μM. At this time, the control group was treated with dexamethasone (Dex) having the immunosuppressive function, at the irradiation of UVB. After 48 hours, the cell extracts were subject to the Western blotting assay so as to measure the expressions of TNF-α and IL-1α.

[2] = test system: IL-1α; assay: IL-1α expression in UVB-irradiated human keratinocytes HaCaT (Western blotting); conditions: UVB 312 nm 12.5 mJ/cm^2, 48 hours, peptide 0.1˜2 μM, dose-dependent
Experimental: as §1

[3] = test system: MMP-1; assay: MMP-1 expression in UVB-irradiated human dermal fibroblasts (Western blotting); conditions: peptide 0.1˜2 μM, UVB 312 nm 12.5 mJ/cm^2, 48 hours, dose-dependent
Source text: (§2) It is known that MMP-1, the expression of which is induced by ultraviolet stimulation in human dermal fibroblasts, degrades collagen fibers to facilitate cutaneous photoaging as well as wrinkle formation. Since the expression of MMP-1 is induced by NF-κB activation, we evaluate the inhibition thereof by the treatment of the peptides of the present invention, using human dermal fibroblasts (ATCC PCS-201-012, USA).
(§3) The human dermal fibroblasts was irradiated with UVB (312 nm, 12.5 mJ/cm^2) and then treated with the peptide of SEQ ID NO: 1 in the concentrations of 0.1˜2 μM. After 48 hours, the cell extracts were subject to the Western blotting assay so as to measure the expressions of MMP-1 and procollagen type-1. […] Therefore, it can be seen that the peptide of the present invention can inhibit ultraviolet radiation-induced cutaneous photoaging.

[4] = test system: PGE2; assay: PGE2 formation in UVB-irradiated human keratinocytes HaCaT (enzyme immunoassay); conditions: peptide 0.1˜2 μM, dose-dependent
Experimental: as §1
(§4) And also, the cell extracts were subject to the enzyme immunoassay so as to evaluate the inhibitory effects on formation of PGE2 (one of pro-inflammatory factors). For this assay, we also used the group treated with dexamethasone at the irradiation of UVB as a control group. In addition, the expression of COX-2 (which is a PGE2 formation-mediating enzyme) was measured through the Western blotting assay; and the results thereof are shown in FIG. 8.

[5] = test system: COX-2; assay: COX-2 expression in UVB-irradiated human keratinocytes HaCaT (Western blotting); conditions: peptide 0.1˜2 μM, dose-dependent
Experimental: as §1, §4

[6] = test system: procollagen type-1; assay: Procollagen type-1 expression in UVB-irradiated human dermal fibroblasts (Western blotting); conditions: peptide 0.1˜2 μM, UVB 312 nm 12.5 mJ/cm^2, 48 hours, dose-dependent
Source text: as §2, §3

Arg-Phe-Arg (RFR; Peptide fragment) [SEQ ID NO: 1, peptide fragment derived from the NF-κB p65 subunit]
reduced: expression of TNF-α [1] | expression of IL-1α [2] | expression of MMP-1 increased by ultraviolet stimulation [3] | PGE2 formation increased by ultraviolet stimulation [4] | expression of COX-2 [5]
increased: expression of procollagen type-1 [6]
